Data as given in patent publication US20250034171A1, “IMIDAZOPYRIDINE AMIDES AND RELATED COMPOUNDS FOR USE IN THE TREATMENT OF BACTERIAL INFECTIONS” (priority 2021, published 2025).
Values after ≈ are worked out from the molar mass of the structure shown. Like-named read-outs stand apart in the source and are kept apart here.

Columns and labels:
[1] = test system: Mycobacterium tuberculosis strain H37Rv; test: Test 2: MIC determination against M. tuberculosis, resazurin fluorescence; format: cell-based; conditions: Test 2, M. tuberculosis H37Rv; for MIC90: read-out: Bacterial activity MIC90; for IC50: read-out: Bacterial activity pMIC50 (converted)
[2] = HTChem stab assay (chemical stability in buffer pH2, pH4 and pH7 vs DMSO reference); format: physicochemical
Method: HTChem stab assay was used to assess the chemical stability of the compounds. 72 h stirring at rt in a buffer pH2, pH4 and pH7 vs a reference DMSO solution. HTChem stab assay is based on the handbook of Pharmaceutical Stress Testing, Predicting Drug Degradation, second edition, authors Baertschi, Alsante, Reed ISBN 978-143980179-6.
Compounds were plated (1 μl 10 mM DMSO stock in 96 well plate (DMSO control+3 pH conditions), one plate per condition).
200 μL of respectively DMSO, Buffer/DMSO mix pH2, Buffer/DMSO mix pH4 and Buffer/DMSO mix pH7 was added.
After 72 h shaking (300 rpm) at room temperature the samples were analysed by LC/UV/MS. Chromatograms of samples (stability conditions) were compared with the chromatograms of control sample (DMSO). Extra peaks were flagged and identified by mass spectrometry. Sample purity (reference included) were reported.
• pH3 buffer: For 11; weigh 4.14 g NaH2PO4·H2O, add 600 ml H2O, add H3PO4 to pH3, add H2O to 1000 ml. Filter over 0.2 μm and store at 4° C. Expires after 30 days. • pH6 buffer: For 1 l; weigh 4.14 g NaH2PO4·H2O, add 600 ml H2O, add 1N NaOH to pH6, add H2O to 1000 ml. Filter over […] and store at 4° C. Expires after 30 days.
• pH2 Buffer/DMSO (StabSolvent): mix 2 parts of HCl 0.1N with 1 part of DMSO • pH4 Buffer/DMSO (StabSolvent): mix 2 parts of buffer pH3 with 1 part of DMSO • pH7 Buffer/DMSO (StabSolvent): mix 2 parts of buffer pH6 with 1 part of DMSO measure pH prior to use.
Instrument: Acquity UPLC; Column: Acquity HSS T3, 50 mm length×2.1 mm i.d., 1.8 μm particle size. Detectors: PDA (250-350 nm) and SQD2 (90-1500m/z). Mobile phase A: 0.1% Formic acid in water; Mobile phase B: 0.1% Formic acid in Acetonitrile.
Injection volume: 5 μL, flow rate 0.6 mL/min.
Data processing including peak integration and identification was done with Waters OpenLynx software.

[3] = Metabolic stability in liver microsomes (intrinsic clearance); format: in vitro ADME
Method: The test compound was incubated under the generic condition (0.5 mg/ml microsomal protein, 1 mM NADPH, 1 mM MgCl2, and 0.1 M phosphate buffer, pH 7.4, 37° C.) at a defined substrate concentration (typically 1 μM) in liver microsomes of selected species across a time course (typically 0, 5, 10, 20, 40 and 60 minutes) at Cyprotex (Cheshire, UK). The liver microsomes, buffer and test compound will be pre-incubated for 5 minutes. The addition of the co-factor NADPH will initiate the reaction and the reaction was terminated by addition of acetonitrile. The samples were centrifuged prior to analysis by LC-MS/MS analysis. The relative amount of parent compound remaining in the active incubations vs. the control incubations (t=0 mins) for each compound was measured by peak area comparison. The in vitro metabolic half-life (t1/2) was calculated using the slope of the log-linear regression from the percentage parent compound remaining versus time relationship (κ), The in vitro intrinsic clearance (Cl^int) (μl/min/mg microsomal protein) was calculated using the in vitro metabolic half-life, incubation volume and the weight of microsomal protein in the incubation.

[4] = test system: Salmonella typhimurium Ames II Mixed Strains (TA7001-TA7006) and TA98; test: Genotoxicity assay (AmesIIb mutagenicity test); format: cell-based; note: key: an AmesIIb score of 1 shows no genotoxicity signals
Excerpt: The aim is to evaluate compounds (and/or their metabolites) for their ability to induce reverse mutations in a gene of histidine-requiring Salmonella typhimurium strains to produce histidine-independent strains of these bacteria, in the absence and in the presence of a mammalian metabolic activation system.
Point mutations were made in the histidine (His) operon in Salmonella typhimurium, rendering the bacteria incapable of producing histidine. These single base substitutions are positioned at strategic points within the His gene, resulting in his-organisms that cannot grow unless histidine is supplied. When a mutagenic event occurs, base substitutions within the His gene then cause the reversion of the his-Ames II™ strains to His.
A chemical's mutagenic potential is assessed by exposing these his-organisms to varying concentrations of chemical and selecting for the reversion event. Medium lacking histidine is used for this selection which allows only those cells that have undergone the his- to His reversion to survive and grow.
The assay may be performed using a kit and instructions from Xenometric. The two strains provided in the Xenometric kit are the Ames II™ Mixed Strains and TA98. The Ames II™ Mixed Strains contains an equimolar mixture of the Ames II™ TA7001-TA7006 strains. Individually, these strains are designed to revert by only one specific base-pair substitution out of six possible changes. Thus, when mixed, all six base substitution mutations can be represented in one culture. This kit also contains TA98 for the detection of frameshift mutations.

[5] = buffer pH2/DMSO, 72 h stirring at rt
[6] = buffer pH4/DMSO, 72 h stirring at rt
[7] = buffer pH7/DMSO, 72 h stirring at rt
[8] = reference DMSO solution, 72 h stirring at rt
[9] = Mycobacterium tuberculosis, H37RV

| Structure (SMILES) | Bacterial activity pMIC50 [1] | MIC90 [1] [µM] | MIC90 [1, 9] [µM] | IC50 [1, 9] [pM] | Chemical stability data, Vehicle DMSO ([2]; 72 h, 50 µM) [%] | Chemical stability data, Buffer pH2 ([2]; 72 h, 50 µM, pH 2) [%] | Chemical stability data, Buffer pH4 ([2]; 72 h, 50 µM, pH 4) [%] | Chemical stability data, Buffer pH7 ([2]; 72 h, 50 µM, pH 7) [%] | also measured |
| --- | --- | --- | --- | --- | --- | --- | --- | --- | --- |
| CCc1nc2cc(F)ccn2c1C(=O)NCc1ccc(-c2nc3n(n2)CCC(C(F)(F)F)C3)cc1 (racemic) [Compound 7ab] | 8.362 | 0.014 (≈ 6.81 ng/mL) |  |  |  |  |  |  | Chemical stability data, Buffer pH2 [2, 5]: 100%; Chemical stability data, Buffer pH4 [2, 6]: 100%; Chemical stability data, Buffer pH7 [2, 7]: 100%; Chemical stability data, Vehicle DMSO [2, 8]: 100%; Metabolic Stability (liver microsome intrinsic clearance) Clearance (mouse, μl/min./mg protein) ([3]; mouse liver microsomes): 20.5 μl/min./mg protein; Metabolic Stability Half life (mouse, min.) ([3]; mouse liver microsomes): 1.13 h |
| CCc1nc2ncc(C)cn2c1C(=O)NCc1ccc(-c2nc3n(n2)CCC(C(F)(F)F)C3)cc1 (single isomer, unassigned) [Compound 1a] |  |  | 0.009 (≈ 4.35 ng/mL) | 3130 | 100 | 100 | 100 | 100 | half-life at 1 µM ([3]; human, microsomes, pH 7.4, Metabolic Stability Half life (human, min.)): > 3 h; microsomal CLint at 1 µM ([3]; human, microsomes, pH 7.4, human liver microsomes, read-out: Metabolic Stability (liver microsome intrinsic clearance) Clearance (human, μl/min./mg protein)): < 7.7 µL/min/mg; half-life at 1 µM ([3]; mouse, microsomes, pH 7.4, Metabolic Stability Half life (mouse, min.)): > 3 h; microsomal CLint at 1 µM ([3]; mouse, microsomes, pH 7.4, mouse liver microsomes, read-out: Metabolic Stability (liver microsome intrinsic clearance) Clearance (mouse, μl/min./mg protein)): < 7.7 µL/min/mg |
| O=C(NCc1ccc(-c2nc3n(n2)CCC(C(F)(F)F)C3)cc1)c1c(C(F)(F)F)nc2ncccn12 (single isomer, unassigned) [Compound 2a] | 7.648 | 0.086 (≈ 43.8 ng/mL) |  |  |  |  |  |  | GeneTox AmesIIb Score [4]: 1; Metabolic Stability (liver microsome intrinsic clearance) Clearance (human, μl/min./mg protein) ([3]; human, microsomes): <7.7 μl/min./mg protein; Metabolic Stability Half life (human, min.) ([3]; human, microsomes): >3 h; Metabolic Stability (liver microsome intrinsic clearance) Clearance (mouse, μl/min./mg protein) ([3]; mouse, microsomes): 11.4 μl/min./mg protein; Metabolic Stability Half life (mouse, min.) ([3]; mouse, microsomes): 2.02 h |
| O=C(NCc1ccc(-c2nc3n(n2)CCC(C(F)(F)F)C3)cc1)c1c(C(F)(F)F)nc2ncccn12 (single isomer, unassigned) [Compound 2b] | 7.502 | 0.098 (≈ 49.9 ng/mL) |  |  |  |  |  |  | GeneTox AmesIIb Score [4]: 1; Metabolic Stability (liver microsome intrinsic clearance) Clearance (human, μl/min./mg protein) ([3]; human, microsomes): <7.7 μl/min./mg protein; Metabolic Stability Half life (human, min.) ([3]; human, microsomes): >3 h; Metabolic Stability (liver microsome intrinsic clearance) Clearance (mouse, μl/min./mg protein) ([3]; mouse, microsomes): 12.3 μl/min./mg protein; Metabolic Stability Half life (mouse, min.) ([3]; mouse, microsomes): 1.87 h |
| CCc1nc2ncc(C)cn2c1C(=O)NCc1ccc(-c2cn3c(n2)CC(C(F)(F)F)CC3)cc1 (single isomer, unassigned) [Compound 3b] | 8.483 | 0.010 (≈ 4.83 ng/mL) |  |  |  |  |  |  | GeneTox AmesIIb Score [4]: 1; Metabolic Stability (liver microsome intrinsic clearance) Clearance (human, μl/min./mg protein) ([3]; human, microsomes): 26.1 μl/min./mg protein; Metabolic Stability Half life (human, min.) ([3]; human, microsomes): 0.887 h; Metabolic Stability (liver microsome intrinsic clearance) Clearance (mouse, μl/min./mg protein) ([3]; mouse, microsomes): 23.8 μl/min./mg protein; Metabolic Stability Half life (mouse, min.) ([3]; mouse, microsomes): 0.972 h |
| CCc1nc2ncc(C)cn2c1C(=O)NCc1ccc(-c2nc3n(c2C)CCC(C(F)(F)F)C3)cc1 (centres unmarked) [Compound 19ab] |  |  | 0.047 (≈ 23.3 ng/mL) | 11500 | 98 | 98 | 98 | 98 |  |
| CCc1nc2ncc(C)cn2c1C(=O)NCc1ccc(-c2nn3c(c2C)CC(C(F)(F)F)CC3)cc1 (centres unmarked) [Compound 21ab] |  |  | 0.011 (≈ 5.46 ng/mL) | 3490 | 100 | 100 | 100 | 100 |  |
| CCc1nc2ncc(C)cn2c1C(=O)NCc1ccc(-c2nc3n(n2)CCC(C2CC2)C3)cc1 (centres unmarked) [Compound 27ab] |  |  | 0.014 (≈ 6.38 ng/mL) | 4610 | 100 | 100 | 100 | 100 |  |
| CCCC1CCn2nc(-c3ccc(CNC(=O)c4c(CC)nc5ncc(C)cn45)cc3)nc2C1 (centres unmarked) [Compound 28ab] |  |  | 0.011 (≈ 5.03 ng/mL) | 3660 | 100 | 100 | 100 | 100 |  |
| CCc1nc2ncc(C)cn2c1C(=O)NCc1ccc(-c2nc3n(n2)CCCC3)c(F)c1 [Compound 32ab] |  |  | 0.248 (≈ 108 ng/mL) | 79800 | 100 | 100 | 100 | 100 |  |
| CCc1nc2ncc(C)cn2c1C(=O)NCc1ccc(-c2nc3n(n2)CCC(OC(F)(F)F)C3)cc1 (centres unmarked) [Compound 33ab] |  |  | 0.039 (≈ 19.5 ng/mL) | 12700 | 100 | 64 | 100 | 100 |  |
| O=C(NCc1ccc(-c2cn3c(n2)CC(C(F)(F)F)CC3)nc1)c1c(C(F)(F)F)nc2ccccn12 (centres unmarked) [Compound 36ab] | <6.301 |  |  |  |  |  |  |  | Chemical stability data, Buffer pH2 [2, 5]: 100%; Chemical stability data, Buffer pH4 [2, 6]: 100%; Chemical stability data, Buffer pH7 [2, 7]: 100%; Chemical stability data, Vehicle DMSO [2, 8]: 100% |
